In patent US9844599B2, “Nitric oxide releasing produgs of therapeutic agents” (priority 2013, dated 2017):

Experiments:
[1] = tested on: serum thromboxane B2 (TXB2) formation; assay: Inhibition of serum thromboxane B2 (TXB2) formation; type: in vivo, Sprague-Dawley (SD) rats; conditions: SD rats, 30 mg/kg aspirin or equimolar 44.82 mg/kg, p.o., o.d., 7 days
Method: Aspirin is used as an antiplatelet agent for the treatment of cardiovascular complications. […] It is therefore possible to achieve complete suppression of platelet. TXA2 (and also TXB2) formation via chronic administration of aspirin at a dose of 30 mg/daily (Patrignani, P., et al. J. Clin. Invest. 1982, 69, 1366-1372). The antiplatelet activity of aspirin (30 mg/kg) and its prodrug I-D1-R1 (at a dose equimolar to 30 mg/kg dose of aspirin) was evaluated in Sprague-Dawley (SD) rats through estimation of serum TXB2 levels (Esser, R. et al., Br. J. Pharmacol. 2006, 144, 538-550) and the experimental results are presented in FIG. 7.
In vivo TXB2 inhibition potential of aspirin and NO-aspirin prodrugs was assessed in Sprague-Dawley (SD) rats; the serum TXB2 levels were estimated according to the reported procedure (R. Esser, R., et al., Br. J. Pharmacol. 2006, 144, 538-550). Thus, vehicle, aspirin (30 mg/kg) or aspirin prodrug I-D1-R1 (44.82 mg/kg which is equivalent to 30 mg/kg dose of aspirin) were administered orally to the overnight fasted SD rats. […] The serum TXB2 concentrations were determined by enzyme immunoassay (EIA) using commercially available TXB2 estimation kit (Cayman Chemicals, USA), according to the method described in kit information booklet.

[2] = Stability of prodrugs at RT and at 50° C. (capped vials); type: physicochemical
[3] = Stability / release of aspirin in Simulated Intestinal Fluid (SIF); type: in vitro ADME; conditions: 1 mM concentration
Method: SIF was prepared according to the procedure described in Test Solution—USP. Thus, 0.68 g of monobasic potassium phosphate was dissolved in 25 mL of water followed by addition of 0.2N NaOH (7.7 mL) and water (50 mL). To this solution was added pancreatin (1 g) and mixed; the pH of the resulting solution was adjusted to about 6.8 with 0.2N HCl/0.2N NaOH and the solution, was diluted with water to 100 mL. The solution was utilized for in-vitro studies.
(§1) The solution of the test compound in acetonitrile (10 μL of […] solution) was dissolved in 990 μL of biological fluid (SGF/SIF/Human Plasma). The resulting reaction mixtures were incubated at 37° C. At specified time intervals, aliquots (60 μL) were withdrawn and added to acetonitrile (200 μL) and mixed well by vortexing for 2 minutes. The mixture was centrifuged at 13000 rpm for 15 min at 4° C., and the supernatant analyzed by HPLC. The amounts (area percentages) of the remaining intact prodrug (if any) and the released metabolite(s) were estimated by HPLC.
This was performed by using HPLC instrument (Waters alliance), pump 2695, and PDA detector 2996 with the following chromatographic parameters: Wavelength −210 nm; Column-Waters X-Terra RP-18, 150×3.9 mm, 5 μm; Injection volume, 25 μL; Run time, 13 min. Mode of operation was linear gradient with mobile phase A: Acetonitrile and B: 0.1% TFA in water (filtered and degassed). […]

[4] = Stability of prodrugs / release of parent drug in Simulated Gastric Fluid (SGF); type: in vitro ADME; conditions: for % of Prodrug remaining (μM): simulated gi fluid
Method: SGF was prepared according to the procedure described in Test Solution—USP. Thus, 0.2 g of sodium chloride and 0.32 g of purified pepsin (Sigma, derived from porcine stomach mucosa with an activity of 800 to 2500 units per mg of protein) were dissolved in 0.7 mL of hydrochloric acid and sufficient water to make 100 mL. This test solution has a pH of about 1.2 and was utilized for in-vitro studies.
as §1
(§2) This was performed by using HPLC instrument (Waters alliance), pump 2695, and PDA detector 2996 with the following chromatographic parameters: Wavelength −210 nm; Column-Waters X-Terra RP-18, 150×3.9 mm, 5 μm; Injection volume, 25 μL; Run time, 13 min. Mode of operation was linear gradient with mobile phase A: Acetonitrile and B: 0.1% TFA in water (filtered and degassed). Flow rate was 1.0 mL/min at 25° C.

[5] = Stability / release of aspirin and salicylic acid in human plasma; type: in vitro ADME; conditions: 100 μM, FIG. 11
Method: Human plasma was similarly obtained by processing the blood taken from healthy human male volunteers (age group 25-35 years) who had not consumed any NSAIDS one week prior to the collection of blood. This plasma was utilized for the in-vitro experiments.
as §1, §2

[6] = Acute gastric ulcerogenesis activity study; conditions: rats, acute oral; aspirin 100 mg/kg, I-D1-R1 298.85 mg/kg, naproxen 100 mg/kg, I-D2-R1 138.67 mg/kg
Method: The animals were sacrificed after 5 h of drug administration. The stomachs of the treated animals were separated, perfused with 2% formalin (10 mL), and a large curvature was excised. The severity of the mucosal damage was assessed on the basis of the size of the observed ulcer lesions in the images captured using a stereomicroscope attached to a digital camera (Stemi 2000, Zeiss, Germany). The Image Pro Plus software (version 5.1) was used to quantify the hemorrhagic/ulcer lesions in pixels and to convert them into mm^2. The total area of lesions was calculated for each treatment group and the measure of gastric ulcers (Mean±SEM) (mm^2) was estimated (FIGS. 5 and 6).

CC(=O)Oc1ccccc1C(=O)OC(C)O[N+](=O)[O-] (stereo not drawn) [I-D1-R1, 1-(nitrooxy)ethyl 2-acetoxybenzoate]
Inhibition of TXB2 formation [1]: 72.59% | Asp (Aspirin) formed on storage ([2]; 50° C., 0 h): NIL | Prodrug (area %) on storage ([2]; 50° C., 0 h): 99.14% | SA (Salicylic acid) formed on storage ([2]; 50° C., 0 h): NIL | Prodrug (area %) on storage ([2]; 50° C., 1 m): 88.34% | SA (Salicylic acid) formed on storage ([2]; 50° C., 1 m): 0.6% | Asp (Aspirin) formed on storage ([2]; 50° C., 2 d): NIL | Prodrug (area %) on storage ([2]; 50° C., 2 d): 98.84% | SA (Salicylic acid) formed on storage ([2]; 50° C., 2 d): 0.1% | Asp (Aspirin) formed on storage ([2]; 50° C., 5 d): 0.3% | Prodrug (area %) on storage ([2]; 50° C., 5 d): 98.18% | SA (Salicylic acid) formed on storage ([2]; 50° C., 5 d): 0.14% | Degradation of prodrug on storage ([2]; 50° C., after 1 month): about 11% | Degradation of prodrug on storage ([2]; 50° C., after 5 days): ~1% | Asp (Aspirin) formed on storage ([2]; RT, 0 h): NIL | Prodrug (area %) on storage ([2]; RT, 0 h): 99.14% | SA (Salicylic acid) formed on storage ([2]; RT, 0 h): NIL | Asp (Aspirin) formed on storage ([2]; RT, 1 m): 0.13% | Prodrug (area %) on storage ([2]; RT, 1 m): 98.56% | SA (Salicylic acid) formed on storage ([2]; RT, 1 m): NIL | Asp (Aspirin) formed on storage ([2]; RT, 3 d): NIL | Prodrug (area %) on storage ([2]; RT, 3 d): 98.89% | SA (Salicylic acid) formed on storage ([2]; RT, 3 d): NIL | Asp (Aspirin) formed on storage ([2]; RT, 18 d): NIL | Prodrug (area %) on storage ([2]; RT, 18 d): 98.95% | SA (Salicylic acid) formed on storage ([2]; RT, 18 d): NIL | Stability on storage (in words) ([2]; RT, up to 1 month): very stable | Release of aspirin in SIF (in words) [3]: released significant amount of aspirin | Release of parent drug on incubation in SGF (in words) [4]: released quantitative amounts of the parent drug aspirin | % of Aspirin Released (μM) ([4]; 0 min, 1 µM, pH 1.2): 0% | AUC of aspirin (released / remaining) in SGF ([4]; 1 µM, pH 1.2): 10406 µM·h | Aspirin released in SGF, less than that of aspirin ([4]; 1 µM, pH 1.2): about 15% | % of Aspirin Released (μM) ([4]; 5 min, 1 µM, pH 1.2): 18% | % of Aspirin Released (μM) ([4]; 10 min, 1 µM, pH 1.2): 44% | % of Aspirin Released (μM) ([4]; 30 min, 1 µM, pH 1.2): 97% | % of Aspirin Released (μM) ([4]; 60 min, 1 µM, pH 1.2): 100% | % of Aspirin Released (μM) ([4]; 120 min, 1 µM, pH 1.2): 100% | % of Prodrug remaining (μM) ([4]; 0 h, 1 µM, pH 1.2): 91% | % of Prodrug remaining (μM) ([4]; 5 min, 1 µM, pH 1.2): 82% | % of Prodrug remaining (μM) ([4]; 10 min, 1 µM, pH 1.2): 56% | % of Prodrug remaining (μM) ([4]; 0.5 h, 1 µM, pH 1.2): 3% | % of Prodrug remaining (μM) ([4]; 1 h, 1 µM, pH 1.2): 0% | % of Prodrug remaining (μM) ([4]; 2 h, 1 µM, pH 1.2): 0% | Salicylic acid released in human plasma (in words) [5]: large and proportional amount | Development of gastric ulcers or lesions [6]: none of the animals
